From patent US10681909B2, “Herbicidal triazoles” (FMC Corporation, priority 2014, dated 2020)

Experiments:
blackgrass = assay: Test A postemergence; format: in vivo, Alopecurus myosuroides; settings: 0 to 100 scale (0 no effect, 100 complete control), approx. 10 d
Source text: Seeds of plant species selected from barnyardgrass (Echinochloa crus-galli), crabgrass, large (large crabgrass, Digitaria sanguinalis), kochia (Kochia scoparia), ragweed (common ragweed, Ambrosia elatior), foxtail, giant (giant foxtail, Setaria faberii), morningglory (Ipomoea spp.), pigweed (Amaranthus retroflexus), velvetleaf (Abutilon theophrasti), ryegrass, Italian (Italian ryegrass, Lolium multiflorum), wheat (Triticum aestivum), and corn (Zea mays) were planted into a blend of loam soil and sand and treated preemergence with a directed soil spray using test chemicals formulated in a non-phytotoxic solvent mixture which included a surfactant.
At the same time, plants selected from these crop and weed species and also blackgrass (Alopecurus myosuroides), and galium (catchweed bedstraw, Galium aparine), were planted in pots containing the same blend of loam soil and sand and treated with postemergence applications of test chemicals formulated in the same manner. Plants ranged in height from 2 to 10 cm and were in the one- to two-leaf stage for the postemergence treatment. Treated plants and untreated controls were maintained in a greenhouse for approximately 10 d, after which time all treated plants were compared to untreated controls and visually evaluated for injury. Plant response ratings, summarized in Table A, are based on a 0 to 100 scale where 0 is no effect and 100 is complete control. A dash (-) response means no test result.

waterhemp = assay: Test C preemergence; format: in vivo, Amaranthus rudis; settings: for Waterhemp plant response rating (0 to 100): Preemergence, visual rating after 13 to 15 d; for Plant response rating (scale of 0 to 100 where 0 is no effect and 100 is complete control): Waterhemp, preemergence, 250 g ai/ha
Source text: (§1) Seeds of plant species selected from blackgrass (Alopecurus myosuroides), ryegrass, Italian (Italian ryegrass, Lolium multiflorum), wheat (winter wheat, Triticum aestivum), galium (catchweed bedstraw, Galium aparine), corn (Zea mays), crabgrass, large (large crabgrass, Digitaria sanguinalis), foxtail, giant, (giant foxtail, Setaria faberii), johnsongrass (Sorghum halepense), lambsquarters (Chenopodium album), morningglory (Ipomoea coccinea), nutsedge, yellow (yellow nutsedge, Cyperus esculentus), pigweed (Amaranthus retroflexus), ragweed (common ragweed, Ambrosia elatior), soybean (Glycine max), barnyardgrass (Echinochloa crus-galli), oilseed rape (Brassica napus), waterhemp (common waterhemp, Amaranthus rudis), and velvetleaf (Abutilon theophrasti) were planted into a blend of loam soil and sand and treated preemergence with test chemicals formulated in a non-phytotoxic solvent mixture which included a surfactant. At the same time, plants selected from these crop and weed species and also chickweed (common chickweed, Stellaria media), oat, wild (wild oat, Avena fatua), and kochia (Kochia scoparia), were planted in pots containing Sunshine Redi-Earth® planting medium comprising spaghnum peat moss, vermiculite, starter nutrients and dolomitic limestone and treated with postemergence applications of test chemicals formulated in the same manner. Plants ranged in height from 2 to 18 cm (1- to 4-leaf stage) for postemergence treatments. […] A dash (-) response means no test result.

pigweed [1] = assay: Test C preemergence; format: in vivo, Amaranthus retroflexus; settings: for Plant response rating (scale of 0 to 100 where 0 is no effect and 100 is complete control): Pigweed, preemergence; for Pigweed plant response rating (0 to 100): Preemergence, visual rating after 13 to 15 d
Source text: as §1

oat, wild = assay: Test D preemergence; format: in vivo, Avena fatua; settings: scale 0 to 100
Source text: (§2) Seeds of plant species selected from bluegrass (annual bluegrass, Poa annua), blackgrass (Alopecurus myosuroides), canarygrass (Phalaris minor), chickweed (common chickweed, Stellaria media), galium (catchweed bedstraw, Galium aparine), bromegrass, down (downy bromegrass, Bromus tectorum), Russian thistle (Salsola kali), field poppy (Papaver rhoeas), field violet (Viola arvensis), foxtail, green (green foxtail, Setaria viridis), deadnettle (henbit deadnettle, Lamium amplexicaule), ryegrass, Ital. (Italian ryegrass, Lolium multiflorum), kochia (Kochia scoparia), lambsquarters (Chenopodium album), oilseed rape (Brassica napus), pigweed (Amaranthus retroflexus), chamomile (scentless chamomile, Matricaria inodora), speedwell (bird's-eye speedwell, Veronica persica), barley, spring (spring barley, Hordeum vulgare), wheat, spring (spring wheat, Triticum aestivum), buckwheat, wild (wild buckwheat, Polygonum convolvulus), wild mustard (Sinapis arvensis), oat, wild (wild oat, Avena fatua), radish, wild (wild radish, Raphanus raphanistrum), […]), barley, winter (winter barley, Hordeum vulgare), and wheat, winter (winter wheat, Triticum aestivum) were planted into a silt loam soil and treated preemergence with test chemicals formulated in a non-phytotoxic solvent mixture which included a surfactant. At the same time, these species were planted in pots containing Sunshine Redi-Earth® planting medium comprising spaghnum peat moss, vermiculite, starter nutrients and dolomitic limestone and treated with postemergence applications of the test chemicals formulated in the same manner. Plants ranged in height from 2 to 18 cm (1- to 4-leaf stage). Treated plants and controls were maintained in a controlled growth environment for 14 to 21 d after which time all species were compared to controls and visually evaluated. […] A dash (-) response means no test result.

kochia [2] = assay: Test D preemergence; format: in vivo, Kochia scoparia; settings: scale 0 to 100
Source text: as §2

bromegrass, down = assay: Test D postemergence; format: in vivo, Bromus tectorum; settings: scale 0 to 100
Source text: as §2

lambsquarters = assay: Test D preemergence; format: in vivo, Chenopodium album; settings: scale 0 to 100
Source text: as §2

windgrass [3] = assay: Test D preemergence; format: in vivo, Apera spica-venti; settings: scale 0 to 100
Source text: as §2

windgrass [4] = assay: Test D postemergence; format: in vivo, Apera spica-venti; settings: scale 0 to 100
Source text: as §2

pigweed [5] = assay: Test D preemergence; format: in vivo, Amaranthus retroflexus; settings: scale 0 to 100
Source text: as §2

speedwell = assay: Test D preemergence; format: in vivo, Veronica persica; settings: scale 0 to 100
Source text: as §2

field violet = assay: Test D preemergence; format: in vivo, Viola arvensis; settings: scale 0 to 100
Source text: as §2

kochia [6] = assay: Test D postemergence; format: in vivo, Kochia scoparia; settings: scale 0 to 100
Source text: as §2

## COc1nc(-c2ccc(C(F)(F)F)cc2)nn1Cc1ccnc(C(F)(F)F)c1 [Compound 25]
blackgrass; 31 g ai/ha
  Plant response rating, Blackgrass: 10
blackgrass; 125 g ai/ha
  Plant response rating, Blackgrass: 30

## COc1nc(-c2ccccc2)nn1Cc1ccnc(C(F)(F)F)c1 [Compound 32]
blackgrass; 125 g ai/ha
  Plant response rating, Blackgrass: 20
blackgrass; 500 g ai/ha
  Plant response rating, Blackgrass: 50
waterhemp; 31 g ai/ha
  Waterhemp plant response rating (0 to 100): 90
waterhemp; 62 g ai/ha
  Waterhemp plant response rating (0 to 100): 100
waterhemp
  Plant response rating (scale of 0 to 100 where 0 is no effect and 100 is complete control): 100
Pigweed [1]; 125 g ai/ha
  Plant response rating (scale of 0 to 100 where 0 is no effect and 100 is complete control): 100
Pigweed [1]; 250 g ai/ha
  Plant response rating (scale of 0 to 100 where 0 is no effect and 100 is complete control): 100
Pigweed [1]; 31 g ai/ha
  Pigweed plant response rating (0 to 100): 100
Pigweed [1]; 62 g ai/ha
  Pigweed plant response rating (0 to 100): 100

## CCc1nc(-c2ccc(C(F)(F)F)cc2)nn1Cc1ccnc(C(F)(F)F)c1 [Compound 1, 4-[[5-ethyl-3-[4-(trifluoromethyl)phenyl]-1H-1,2,4-triazol-1-yl]methyl]-2-(trifluoromethyl)pyridine]
oat, wild; 62 g ai/ha
  Plant response rating: Oat, Wild: 0
oat, wild; 125 g ai/ha
  Plant response rating: Oat, Wild: 15
oat, wild; 250 g ai/ha
  Plant response rating: Oat, Wild: 45
Pigweed [1]; 125 g ai/ha
  Plant response rating (scale of 0 to 100 where 0 is no effect and 100 is complete control): 100
Pigweed [1]; 250 g ai/ha
  Plant response rating (scale of 0 to 100 where 0 is no effect and 100 is complete control): 100
Pigweed [1]; 31 g ai/ha
  Pigweed plant response rating (0 to 100): 100
Pigweed [1]; 62 g ai/ha
  Pigweed plant response rating (0 to 100): 100
Kochia [2]; 62 g ai/ha
  Plant response rating: Kochia: 70
Kochia [2]; 125 g ai/ha
  Plant response rating: Kochia: 100
Kochia [2]; 250 g ai/ha
  Plant response rating: Kochia: 100
bromegrass, down; 31 g ai/ha
  Plant response rating: Bromegrass, Down: 15
bromegrass, down; 62 g ai/ha
  Plant response rating: Bromegrass, Down: 20
bromegrass, down; 125 g ai/ha
  Plant response rating: Bromegrass, Down: 25
bromegrass, down; 250 g ai/ha
  Plant response rating: Bromegrass, Down: 35
lambsquarters; 62 g ai/ha
  Plant response rating: Lambsquarters: 100
lambsquarters; 125 g ai/ha
  Plant response rating: Lambsquarters: 100
lambsquarters; 250 g ai/ha
  Plant response rating: Lambsquarters: 100
Windgrass [3]; 62 g ai/ha
  Plant response rating: Windgrass: 100
Windgrass [3]; 125 g ai/ha
  Plant response rating: Windgrass: 100
Windgrass [3]; 250 g ai/ha
  Plant response rating: Windgrass: 100
Windgrass [4]; 31 g ai/ha
  Plant response rating: Windgrass: 15
Windgrass [4]; 62 g ai/ha
  Plant response rating: Windgrass: 20
Windgrass [4]; 125 g ai/ha
  Plant response rating: Windgrass: 30
Windgrass [4]; 250 g ai/ha
  Plant response rating: Windgrass: 60
Pigweed [5]; 62 g ai/ha
  Plant response rating: Pigweed: 100
Pigweed [5]; 125 g ai/ha
  Plant response rating: Pigweed: 100
Pigweed [5]; 250 g ai/ha
  Plant response rating: Pigweed: 100
speedwell; 62 g ai/ha
  Plant response rating: Speedwell: 100
speedwell; 125 g ai/ha
  Plant response rating: Speedwell: 100
speedwell; 250 g ai/ha
  Plant response rating: Speedwell: 100
Field violet; 62 g ai/ha
  Plant response rating: Field Violet: 95
Field violet; 125 g ai/ha
  Plant response rating: Field Violet: 100
Field violet; 250 g ai/ha
  Plant response rating: Field Violet: 100
Kochia [6]; 31 g ai/ha
  Plant response rating: Kochia: 65
Kochia [6]; 62 g ai/ha
  Plant response rating: Kochia: 75
Kochia [6]; 125 g ai/ha
  Plant response rating: Kochia: 80
Kochia [6]; 250 g ai/ha
  Plant response rating: Kochia: 80

## COc1nc(-c2ccc(F)cc2)nn1Cc1ccnc(C(F)(F)F)c1 [Compound 9, 4-[[3-(4-fluorophenyl)-5-methoxy-1H-1,2,4-triazol-1-yl]methyl]-2-(trifluoromethyl)pyridine]
waterhemp; 31 g ai/ha
  Waterhemp plant response rating (0 to 100): 100
waterhemp; 62 g ai/ha
  Waterhemp plant response rating (0 to 100): 100
waterhemp
  Plant response rating (scale of 0 to 100 where 0 is no effect and 100 is complete control): 100
Pigweed [1]; 125 g ai/ha
  Plant response rating (scale of 0 to 100 where 0 is no effect and 100 is complete control): 100
Pigweed [1]; 250 g ai/ha
  Plant response rating (scale of 0 to 100 where 0 is no effect and 100 is complete control): 98
Pigweed [1]; 31 g ai/ha
  Pigweed plant response rating (0 to 100): 100
Pigweed [1]; 62 g ai/ha
  Pigweed plant response rating (0 to 100): 100
